# Experiments:
# hCAR [1] = test: hCAR nuclear translocation assay in HPH; type: cell-based, human; conditions: Ad-EYFP-hCAR-infected HPH, 1 μM, 8 h
# hCAR [2] = test: HepG2 cell reporter assay, hCAR activation; type: cell-based, human; conditions: 1 μM; normalized against CITCO
# Stability = type: physicochemical
# SU-DHL-4 cells = test: CHOP-mediated cytotoxicity in HPH/SU-DHL-4 co-culture; type: cell-based, human
# hPXR = biological target: T1, hPXR (Homo sapiens, UniProt O75469); test: HepG2 cell reporter assay, hPXR activation; type: cell-based; conditions: HepG2 cell reporter assays, 1 μM
# T1 sequence (O75469 1-434): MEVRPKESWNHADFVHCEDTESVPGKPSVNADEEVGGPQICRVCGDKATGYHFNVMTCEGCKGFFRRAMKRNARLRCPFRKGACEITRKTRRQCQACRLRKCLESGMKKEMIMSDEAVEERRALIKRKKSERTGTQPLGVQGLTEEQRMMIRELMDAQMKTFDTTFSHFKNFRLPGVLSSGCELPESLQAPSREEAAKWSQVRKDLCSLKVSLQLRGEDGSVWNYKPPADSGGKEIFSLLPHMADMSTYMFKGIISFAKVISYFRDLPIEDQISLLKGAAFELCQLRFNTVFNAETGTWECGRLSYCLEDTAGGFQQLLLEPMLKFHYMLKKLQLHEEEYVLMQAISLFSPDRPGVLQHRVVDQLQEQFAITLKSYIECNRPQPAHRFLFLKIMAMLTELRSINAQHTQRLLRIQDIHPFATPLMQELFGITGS
structure (smiles),measurement,setting,value
"c1ccc2c(c1)CC(NCc1c(-c3ccc4ccccc4c3)nc3occn13)C2 [DL5016, N-((6-(Naphthalen-2-yl)imidazo[2,1-b]oxazol-5-yl)methyl)-2,3-dihydro-1H-inden-2-amine]",hCAR translocation from cytoplasm to nucleus (in words),hCAR [1],efficiently translocated into the nucleus
same,hCAR activation in HepG2 cell reporter assay (in words),hCAR [2],significant improvement in hCAR activation over CITCO
same,stability (in words),Stability,excellent stability
same,effect on CHOP-induced cytotoxicity in SU-DHL-4 cells (in words),"SU-DHL-4 cells; DL5016 1 μM with CHOP, 24 h",significantly enhanced CHOP-induced cytotoxicity
same,cytotoxicity of compound alone in co-cultured SU-DHL-4 cells (in words),SU-DHL-4 cells; control experiment without CHOP,did not show cytotoxicity
same,selectivity for hCAR over hPXR (in words),hPXR,maintaining selectivity over hPXR

# Reference: PMC6718324 (European journal of medicinal chemistry, 2019)
